Earlier results in patent publication US20260191206A1, “SYNERGISTIC INSECTICIDAL COMPOSITION COMPRISING PHTHALIMIDE COMPOUNDS AND THE USE THEREOF” (COUNCIL OF SCIENTIFIC AND INDUSTRIAL RESEARCH AN INDIAN …, priority 2022, published 2026).

Tested on: trehalose 6-phosphate phosphatase
Details: Cross et al, Sci Rep 9, 16165 (2019)

## O=C1c2ccccc2C(=O)N1Sc1ccccc1 [NPP, N-(Phenylthio) phthalimide]
  inhibition of trehalose 6-phosphate phosphatase: inhibit
